Source: ChEMBL document CHEMBL1153020, “Smart conferring of nuclease resistance to DNA by 3'-end protection using 2',4'-bridged nucleoside-5'-triphosphates” (Bioorg Med Chem Lett, 2009)

Test: Stability assessed as nuclease resistance; call rule not given here
Assay type: ADME

Activity, Active:
Cc1cn([C@@H]2O[C@@]3(COP(=O)(O)OP(=O)(O)OP(=O)(O)O[C@H]4C[C@H](n5cc(C)c(=O)[nH]c5=O)O[C@@H]4COP(=O)(O)O[C@H]4C[C@H](n5cnc6c(=O)[nH]c(N)nc65)O[C@@H]4COP(=O)(O)O[C@H]4C[C@H](n5cnc6c(N)ncnc65)O[C@@H]4COP(=O)(O)O[C@H]4C[C@H](n5cnc6c(=O)[nH]c(N)nc65)O[C@@H]4COP(=O)(O)O[C@H]4C[C@H](n5cc(C)c(=O)[nH]c5=O)O[C@@H]4COP(=O)(O)O[C@H]4[C@@H](O)[C@H](n5cnc6c(=O)[nH]c(N)nc65)O[C@@H]4COP(=O)(O)O[C@H]4[C@@H](O)[C@H](n5cnc6c(N)ncnc65)O[C@@H]4COP(=O)(O)O[C@H]4C[C@H](n5cnc6c(=O)[nH]c(N)nc65)O[C@@H]4COP(=O)(O)O[C@H]4C[C@H](n5cc(C)c(=O)[nH]c5=O)O[C@@H]4COP(=O)(O)O[C@H]4C[C@H](n5cnc6c(N)ncnc65)O[C@@H]4COP(=O)(O)O[C@H]4C[C@H](n5cnc6c(N)ncnc65)O[C@@H]4COP(=O)(O)O[C@H]4C[C@H](n5cnc6c(=O)[nH]c(N)nc65)O[C@@H]4COP(=O)(O)O[C@H]4C[C@H](n5cc(C)c(=O)[nH]c5=O)O[C@@H]4COP(=O)(O)O[C@H]4C[C@H](n5cnc6c(=O)[nH]c(N)nc65)O[C@@H]4COP(=O)(O)O[C@H]4C[C@H](n5cnc6c(N)ncnc65)O[C@@H]4COP(=O)(O)O[C@H]4C[C@H](n5cnc6c(=O)[nH]c(N)nc65)O[C@@H]4COP(=O)(O)O[C@H]4C[C@H](n5cc(C)c(=O)[nH]c5=O)O[C@@H]4COP(=O)(O)O[C@H]4C[C@H](n5cnc6c(=O)[nH]c(N)nc65)O[C@@H]4COP(=O)(O)O[C@H]4C[C@H](n5cnc6c(N)ncnc65)O[C@@H]4COP(=O)(O)O[C@H]4C[C@H](n5cnc6c(=O)[nH]c(N)nc65)O[C@@H]4COP(=O)(O)O[C@H]4C[C@H](n5cc(C)c(=O)[nH]c5=O)O[C@@H]4COP(=O)(O)O[C@H]4C[C@H](n5cc(C)c(=O)[nH]c5=O)O[C@@H]4COP(=O)(O)O[C@H]4C[C@H](n5cnc6c(=O)[nH]c(N)nc65)O[C@@H]4COP(=O)(O)O[C@H]4C[C@H](n5ccc(N)nc5=O)O[C@@H]4COP(=O)(O)O[C@H]4C[C@H](n5cnc6c(=O)[nH]c(N)nc65)O[C@@H]4COP(=O)(O)O[C@H]4C[C@H](n5cnc6c(=O)[nH]c(N)nc65)O[C@@H]4CO)COC2[C@@H]3O)c(=O)[nH]c1=O, Cc1cn([C@@H]2O[C@@]3(COP(=O)(O)OP(=O)(O)OP(=O)(O)O[C@H]4C[C@H](n5cc(C)c(=O)[nH]c5=O)O[C@@H]4COP(=O)(O)O[C@H]4C[C@H](n5cnc6c(=O)[nH]c(N)nc65)O[C@@H]4COP(=O)(O)O[C@H]4C[C@H](n5cnc6c(N)ncnc65)O[C@@H]4COP(=O)(O)O[C@H]4C[C@H](n5cnc6c(=O)[nH]c(N)nc65)O[C@@H]4COP(=O)(O)O[C@H]4C[C@H](n5cc(C)c(=O)[nH]c5=O)O[C@@H]4COP(=O)(O)O[C@H]4[C@@H](O)[C@H](n5cnc6c(=O)[nH]c(N)nc65)O[C@@H]4COP(=O)(O)O[C@H]4[C@@H](O)[C@H](n5cnc6c(N)ncnc65)O[C@@H]4COP(=O)(O)O[C@H]4C[C@H](n5cnc6c(=O)[nH]c(N)nc65)O[C@@H]4COP(=O)(O)O[C@H]4C[C@H](n5cc(C)c(=O)[nH]c5=O)O[C@@H]4COP(=O)(O)O[C@H]4C[C@H](n5cnc6c(N)ncnc65)O[C@@H]4COP(=O)(O)O[C@H]4C[C@H](n5cnc6c(N)ncnc65)O[C@@H]4COP(=O)(O)O[C@H]4C[C@H](n5cnc6c(=O)[nH]c(N)nc65)O[C@@H]4COP(=O)(O)O[C@H]4C[C@H](n5cc(C)c(=O)[nH]c5=O)O[C@@H]4COP(=O)(O)O[C@H]4C[C@H](n5cnc6c(=O)[nH]c(N)nc65)O[C@@H]4COP(=O)(O)O[C@H]4C[C@H](n5cnc6c(N)ncnc65)O[C@@H]4COP(=O)(O)O[C@H]4C[C@H](n5cnc6c(=O)[nH]c(N)nc65)O[C@@H]4COP(=O)(O)O[C@H]4C[C@H](n5cc(C)c(=O)[nH]c5=O)O[C@@H]4COP(=O)(O)O[C@H]4C[C@H](n5cnc6c(=O)[nH]c(N)nc65)O[C@@H]4COP(=O)(O)O[C@H]4C[C@H](n5cnc6c(N)ncnc65)O[C@@H]4COP(=O)(O)O[C@H]4C[C@H](n5cnc6c(=O)[nH]c(N)nc65)O[C@@H]4COP(=O)(O)O[C@H]4C[C@H](n5cc(C)c(=O)[nH]c5=O)O[C@@H]4COP(=O)(O)O[C@H]4C[C@H](n5cc(C)c(=O)[nH]c5=O)O[C@@H]4COP(=O)(O)O[C@H]4C[C@H](n5cnc6c(=O)[nH]c(N)nc65)O[C@@H]4COP(=O)(O)O[C@H]4C[C@H](n5ccc(N)nc5=O)O[C@@H]4COP(=O)(O)O[C@H]4C[C@H](n5cnc6c(=O)[nH]c(N)nc65)O[C@@H]4COP(=O)(O)O[C@H]4C[C@H](n5cnc6c(=O)[nH]c(N)nc65)O[C@@H]4CO)COCOC2[C@@H]3O)c(=O)[nH]c1=O, Cc1cn([C@@H]2O[C@@]3(COP(=O)(O)OP(=O)(O)OP(=O)(O)O[C@H]4C[C@H](n5cc(C)c(=O)[nH]c5=O)O[C@@H]4COP(=O)(O)O[C@H]4C[C@H](n5cnc6c(=O)[nH]c(N)nc65)O[C@@H]4COP(=O)(O)O[C@H]4C[C@H](n5cnc6c(N)ncnc65)O[C@@H]4COP(=O)(O)O[C@H]4C[C@H](n5cnc6c(=O)[nH]c(N)nc65)O[C@@H]4COP(=O)(O)O[C@H]4C[C@H](n5cc(C)c(=O)[nH]c5=O)O[C@@H]4COP(=O)(O)O[C@H]4[C@@H](O)[C@H](n5cnc6c(=O)[nH]c(N)nc65)O[C@@H]4COP(=O)(O)O[C@H]4[C@@H](O)[C@H](n5cnc6c(N)ncnc65)O[C@@H]4COP(=O)(O)O[C@H]4C[C@H](n5cnc6c(=O)[nH]c(N)nc65)O[C@@H]4COP(=O)(O)O[C@H]4C[C@H](n5cc(C)c(=O)[nH]c5=O)O[C@@H]4COP(=O)(O)O[C@H]4C[C@H](n5cnc6c(N)ncnc65)O[C@@H]4COP(=O)(O)O[C@H]4C[C@H](n5cnc6c(N)ncnc65)O[C@@H]4COP(=O)(O)O[C@H]4C[C@H](n5cnc6c(=O)[nH]c(N)nc65)O[C@@H]4COP(=O)(O)O[C@H]4C[C@H](n5cc(C)c(=O)[nH]c5=O)O[C@@H]4COP(=O)(O)O[C@H]4C[C@H](n5cnc6c(=O)[nH]c(N)nc65)O[C@@H]4COP(=O)(O)O[C@H]4C[C@H](n5cnc6c(N)ncnc65)O[C@@H]4COP(=O)(O)O[C@H]4C[C@H](n5cnc6c(=O)[nH]c(N)nc65)O[C@@H]4COP(=O)(O)O[C@H]4C[C@H](n5cc(C)c(=O)[nH]c5=O)O[C@@H]4COP(=O)(O)O[C@H]4C[C@H](n5cnc6c(=O)[nH]c(N)nc65)O[C@@H]4COP(=O)(O)O[C@H]4C[C@H](n5cnc6c(N)ncnc65)O[C@@H]4COP(=O)(O)O[C@H]4C[C@H](n5cnc6c(=O)[nH]c(N)nc65)O[C@@H]4COP(=O)(O)O[C@H]4C[C@H](n5cc(C)c(=O)[nH]c5=O)O[C@@H]4COP(=O)(O)O[C@H]4C[C@H](n5cc(C)c(=O)[nH]c5=O)O[C@@H]4COP(=O)(O)O[C@H]4C[C@H](n5cnc6c(=O)[nH]c(N)nc65)O[C@@H]4COP(=O)(O)O[C@H]4C[C@H](n5ccc(N)nc5=O)O[C@@H]4COP(=O)(O)O[C@H]4C[C@H](n5cnc6c(=O)[nH]c(N)nc65)O[C@@H]4COP(=O)(O)O[C@H]4C[C@H](n5cnc6c(=O)[nH]c(N)nc65)O[C@@H]4CO)NCOC2[C@@H]3O)c(=O)[nH]c1=O, Cc1cn([C@H]2C[C@H](OP(=O)(O)OC[C@H]3O[C@@H](n4cnc5c(=O)[nH]c(N)nc54)C[C@@H]3OP(=O)(O)OC[C@H]3O[C@@H](n4cnc5c(N)ncnc54)C[C@@H]3OP(=O)(O)OC[C@H]3O[C@@H](n4cnc5c(=O)[nH]c(N)nc54)C[C@@H]3OP(=O)(O)OC[C@H]3O[C@@H](n4cc(C)c(=O)[nH]c4=O)C[C@@H]3O)[C@@H](COP(=O)(O)O[C@H]3[C@@H](O)[C@H](n4cnc5c(=O)[nH]c(N)nc54)O[C@@H]3COP(=O)(O)O[C@H]3[C@@H](O)[C@H](n4cnc5c(N)ncnc54)O[C@@H]3COP(=O)(O)O[C@H]3C[C@H](n4cnc5c(=O)[nH]c(N)nc54)O[C@@H]3COP(=O)(O)O[C@H]3C[C@H](n4cc(C)c(=O)[nH]c4=O)O[C@@H]3COP(=O)(O)O[C@H]3C[C@H](n4cnc5c(N)ncnc54)O[C@@H]3COP(=O)(O)O[C@H]3C[C@H](n4cnc5c(N)ncnc54)O[C@@H]3COP(=O)(O)O[C@H]3C[C@H](n4cnc5c(=O)[nH]c(N)nc54)O[C@@H]3COP(=O)(O)O[C@H]3C[C@H](n4cc(C)c(=O)[nH]c4=O)O[C@@H]3COP(=O)(O)O[C@H]3C[C@H](n4cnc5c(=O)[nH]c(N)nc54)O[C@@H]3COP(=O)(O)O[C@H]3C[C@H](n4cnc5c(N)ncnc54)O[C@@H]3COP(=O)(O)O[C@H]3C[C@H](n4cnc5c(=O)[nH]c(N)nc54)O[C@@H]3COP(=O)(O)O[C@H]3C[C@H](n4cc(C)c(=O)[nH]c4=O)O[C@@H]3COP(=O)(O)O[C@H]3C[C@H](n4cnc5c(=O)[nH]c(N)nc54)O[C@@H]3COP(=O)(O)O[C@H]3C[C@H](n4cnc5c(N)ncnc54)O[C@@H]3COP(=O)(O)O[C@H]3C[C@H](n4cnc5c(=O)[nH]c(N)nc54)O[C@@H]3COP(=O)(O)O[C@H]3C[C@H](n4cc(C)c(=O)[nH]c4=O)O[C@@H]3COP(=O)(O)O[C@H]3C[C@H](n4cc(C)c(=O)[nH]c4=O)O[C@@H]3COP(=O)(O)O[C@H]3C[C@H](n4cnc5c(=O)[nH]c(N)nc54)O[C@@H]3COP(=O)(O)O[C@H]3C[C@H](n4ccc(N)nc4=O)O[C@@H]3COP(=O)(O)O[C@H]3C[C@H](n4cnc5c(=O)[nH]c(N)nc54)O[C@@H]3COP(=O)(O)O[C@H]3C[C@H](n4cnc5c(=O)[nH]c(N)nc54)O[C@@H]3CO)O2)c(=O)[nH]c1=O
